Data on six compounds can be found in patent US4382920A, “Hormone-like peptides and use thereof” (Perignon Investments Ltd., priority 1980, dated 1983).

The test is described as follows: Body temperature of mice after intravenous injection. The settings on record: for body temperature at 0 min: amount injected as listed per substance. The class given is in vivo. How it is done:
Type: Out-breed, white NMRI
Average body weight: 24-27 gm
Diet: Standard food pellet
Mice fasted 12-15 hrs. prior to testing (water given during this period)
Mice all separated from one another
Mice kept in quiet and dark environment
Testing time: 1 p.m.-3 p.m. each day
Test solution is prepared by:
(b) dissolving a known amount of the refined brain extract in 0.4 ml of trishydrochloric buffer and adjusting the pH of the solution to from about 7.0 to about 7.4 by titrating with microdrops of 1 M or 0.1 M sodium hydroxide solution.
Volume of solution injected into mice:
Solution is at room temperature when injected into mice.
Mouse is placed in restrainer
Injection is made in the tail vein
Injection time: 2 minutes
Body temperature is measured by inserting a thermistor into the anal cavity to a depth of 11/2 cm (thermistor is made by Thermovit, Fu. Armatherm, Lemgo, W. Germany)
Temperature measurements are begun immediately after injection, i.e., 2 minutes after injection started
The extract obtained from the brain of 40 lungfish is used. Five mice are used in obtaining the data on the aroused lungfish and nine mice are used for the data on the estivating lungfish.

SMILES strings stand for the structures.

Regarding `CC(=O)[O-].[Na+]` [1.0 M SODIUM ACETATE, SODIUM ACETATE], the “body temperature at 5 min” value was 37.5, the “body temperature at 10 min” value stood at 38.0, the “body temperature at 20 min” value worked out at 38.3 and the “body temperature at 30 min” value came out at 38.5. In addition, the “body temperature at 40 min” value was found to be 38.0, the “body temperature at 50 min” value is 38.1 and the “body temperature at 60 min” value stood at 38.2. For the same compound, the “body temperature at 0 min” value (pH 7.0-7.4) turned out to be 37.0. For the same compound, where the note is “pH 7.0-7.4, listed as 3.0 M SODIUM ACETATE”, the “body temperature at 0 min” value was determined as 37.5. Besides, for the setting “listed as 3.0 M SODIUM ACETATE”, the “body temperature at 5 min” value was found to be 36.2, the “body temperature at 10 min” value turned out to be 37.0, the “body temperature at 20 min” value was determined as 38.0 and the “body temperature at 30 min” value is recorded as 37.7. Also, for the setting “listed as 3.0 M SODIUM ACETATE”, the “body temperature at 40 min” value is on record as 38.1, the “body temperature at 50 min” value was determined as 38.6 and the “body temperature at 60 min” value was found to be 38.5.

As to `O=C([O-])O.[K+]` [3.0 M KHCO3, KHCO3], the “body temperature at 2 min” value is reported as 34.7, the “body temperature at 5 min” value is given as 35.0, the “body temperature at 10 min” value is given as 36.5 and the “body temperature at 20 min” value is 37.8. For the same compound, the “body temperature at 30 min” value is recorded as 37.9, the “body temperature at 40 min” value is reported as 38.4, the “body temperature at 50 min” value is on record as 38.4 and the “body temperature at 60 min” value is reported as 38.0. For the setting “pH 7.0-7.4”, the “body temperature at 0 min” value is 37.1. For the same compound, the “body temperature at 0 min” value (pH 7.0-7.4, listed as 0.3 M KHCO3) was 37.6. For the setting “pH 7.0-7.4, listed as 1.0 M KHCO3”, the “body temperature at 0 min” value was determined as 38.0. Besides, where the note is “listed as 0.3 M KHCO3”, the “body temperature at 2 min” value turned out to be 36.3, the “body temperature at 5 min” value stood at 37.2, the “body temperature at 10 min” value was determined as 38.0 and the “body temperature at 30 min” value is listed as 38.3. Also, the “body temperature at 50 min” value (listed as 0.3 M KHCO3) came to 38.3. For the setting “listed as 1.0 M KHCO3”, the “body temperature at 2 min” value is 37.2, the “body temperature at 5 min” value was found to be 37.3, the “body temperature at 10 min” value is 38.5 and the “body temperature at 20 min” value came to 39.5. Under “listed as 1.0 M KHCO3”, the “body temperature at 30 min” value is listed as 39.0 and the “body temperature at 40 min” value is 39.1.

On to `[Cl-].[Na+]` [3.0 M NaCl, NaCl], for which the “body temperature at 2 min” value came out at 34.9, the “body temperature at 5 min” value turned out to be 36.5, the “body temperature at 10 min” value was determined as 38.1 and the “body temperature at 20 min” value amounted to 37.9. For the same compound, the “body temperature at 30 min” value stood at 37.4, the “body temperature at 40 min” value was 37.4, the “body temperature at 50 min” value is given as 37.6 and the “body temperature at 60 min” value amounted to 37.7. Under “pH 7.0-7.4”, the “body temperature at 0 min” value is 36.0.

For the compound `N[C@@H](CC(=O)O)C(=O)O` [ASPARTIC ACID], the “body temperature at 2 min” value turned out to be 35.5, the “body temperature at 5 min” value is reported as 36.7, the “body temperature at 10 min” value stood at 38.0 and the “body temperature at 20 min” value was found to be 37.5. The “body temperature at 30 min” value stood at 37.6, the “body temperature at 40 min” value turned out to be 37.8, the “body temperature at 50 min” value came out at 37.8 and the “body temperature at 60 min” value stood at 37.8. Where the note is “pH 7.0-7.4”, the “body temperature at 0 min” value is 36.7.

For `O=C(O)CCCC(=O)O` [GLUTARIC ACID], the “body temperature at 2 min” value came to 36.5, the “body temperature at 5 min” value was 37.0, the “body temperature at 10 min” value was 38.1 and the “body temperature at 20 min” value worked out at 38.5. Also, the “body temperature at 30 min” value is on record as 38.5, the “body temperature at 40 min” value is on record as 38.4, the “body temperature at 50 min” value amounted to 38.6 and the “body temperature at 60 min” value was 39.0. The “body temperature at 0 min” value (pH 7.0-7.4) is given as 36.6.

As to `N[C@@H](Cc1c[nH]c2ccccc12)C(=O)O` [TRYPTOPHAN], the “body temperature at 2 min” value was 36.4, the “body temperature at 5 min” value is 36.8, the “body temperature at 10 min” value is listed as 37.1 and the “body temperature at 20 min” value is 37.4. For the same compound, the “body temperature at 30 min” value was 36.5, the “body temperature at 40 min” value amounted to 36.8, the “body temperature at 50 min” value is on record as 37.0 and the “body temperature at 60 min” value was determined as 36.9. The “body temperature at 0 min” value (pH 7.0-7.4) is recorded as 36.9.
